Data reported in patent US20260347365A1, “COMPOUND FOR REGULATING AND CONTROLLING 15-PGDH ACTIVITY AND PREPARATION METHOD THEREFOR” (SCINNOHUB PHARMACEUTICAL CO.,LTD, priority 2023, published 2026).
Like-named read-outs stand apart in the source and are kept apart here.

Biological target: T1, 15-PGDH (Homo sapiens, UniProt P15428)
T1 construct: purchased Sino Biological Inc. 11205-H08E
T1 sequence (P15428 1-266): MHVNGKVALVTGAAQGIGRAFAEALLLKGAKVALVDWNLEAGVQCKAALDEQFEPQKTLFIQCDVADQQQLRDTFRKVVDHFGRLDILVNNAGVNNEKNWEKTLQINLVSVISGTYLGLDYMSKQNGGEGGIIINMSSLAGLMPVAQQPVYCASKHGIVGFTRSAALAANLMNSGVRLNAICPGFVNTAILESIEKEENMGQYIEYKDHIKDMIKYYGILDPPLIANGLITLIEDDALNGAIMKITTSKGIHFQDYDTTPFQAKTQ
Assay: Detection of Activity of 15-PGDH Kinase (inhibition of 15-PGDH enzyme)
Format: biochemical
Experimental: • a. A solution of pH 7.5 containing 50 mM Tris-HCl and 0.01% Tween 20 was prepared with ultrapure water as a reaction buffer; • b. a 10 mM mother liquor of the compound to be tested was prepared with DMSO, and then the reaction buffer was used to dilute the mother liquor of the compound to be tested to obtain solution 1 of the compound to be tested at a concentration of 4000 nM, and then the solution 1 of the compound to be tested was serially diluted into solutions 2-10 of the compound to be tested at 9 concentrations with a gradient difference of three-fold. 5 μL of each concentration of solutions 1-10 of the compound to be tested was respectively taken and added into a 384-well plate as test wells; • c. 5 μL of the reaction buffer was added to the 384-well plate as positive control and blank control wells; • d. the reaction buffer was used to prepare a 15-PGDH protein solution at a concentration of 5 ng/μL, 5 μL of the 15-PGDH protein solution was taken and added to the test wells and positive control wells, and 5 μL of the reaction buffer was added to the blank control wells at the same time, then the plate was centrifuged at 2000 rpm for 30 seconds; • e. the reaction buffer was used to prepare 5 mM β-NAD and 2 mM PGF2α, respectively, which were mixed at 1:1 by volume to obtain a substrate mixture, 10 μL of the substrate mixture was taken and added to the test wells, positive control wells and blank control wells to start the reaction; • f. the fluorescence signal value (Ex/Em=340/450) of each well was detected continuously by using a multifunctional microplate reader.
• a) Continuous fluorescence signal values were analyzed by using the “kinetic calculations-slope calculation method” in the PHERAstar Data analysis software to obtain the slope of each test well; • b) the inhibition rate % was calculated by using the following formula:
inhibition rate %=[1−(slope of test well-signal value of positive control well)/(signal value of blank control well-average signal value of positive control well)]×100%. • c) calculation of IC50 and plotting of inhibition rate-dose curves: IC50 values were calculated by fitting compound concentrations and corresponding inhibition rates with a nonlinear regression (dose response-variable slope) via using GraphPad Prism 6.0.
The formula is shown below: Y=Bottom+(Top−Bottom)/(1+10^((Log IC50−X)*HillSlope)), wherein X is a log value of a concentration of the compound, and Y is inhibition rate %.

[1] = class symbols, substrates β-NAD and PGF2α, pH 7.5, fluorescence Ex/Em=340/450, read-out: IC50

Row | SMILES | IC50 [1] | IC50
1 | N#Cc1ccc(-c2nc3cc(C(=O)N4CCCCC4)ccc3c3nccn23)cn1 [Example 50] | 5 to 10 nM | 
2 | CN1Cc2cc(-c3nc4cc(C(=O)N5CCCCC5)ccc4c4nccn34)ccc2C1=O [Example 46, 2-methyl-5-(8-(piperidine-1-carbonyl)imidazo[1,2-c]quinazolin-5-yl) isoindolin-1-one] | 2 to 5 nM | 
3 | CN1Cc2cc(-c3nc4ccc(C(=O)N5CCCCC5)cc4c4nccn34)ccc2C1=O [Example 75] | 100 to 1000 nM | 
4 | O=C(c1ccc2c(c1)nc(-c1cccnc1)n1ccnc21)N1CCCCC1 [Example 57] | 2 to 5 nM | 
5 | Cn1ncc2cc(-c3nc4cc(C(=O)N5CCCCC5)ccc4c4nccn34)ccc21 [Example 69] | 2 to 5 nM | 
6 | CC1CN=C2C(c3ccc4c(c3)CN(C)C4=O)=Nc3cc(C(=O)N4CCCCC4)ccc3N21 (centres unmarked) [Example 37] | < 2 nM | 
7 | O=C(c1ccc2c(c1)nc(-c1ccc3c(c1)CCN3)n1ccnc21)N1CCCCC1 [Example 47] | 2 to 5 nM | 
8 | Cc1cnc2c(-c3ccc4c(c3)CN(C)C4=O)nc3cc(C(=O)N4CCCCC4)ccc3n12 [Example 3, 2-methyl-5-(1-methyl-7-(piperidine-1-carbonyl)imidazo[1,2-a]quinoxalin-4-yl) isoindolin-1-one] |  | 2 to 5 nM
9 | Cc1nc2c3ccc(C(=O)N4CCCCC4)cc3nc(-c3ccc4c(c3)CN(C)C4=O)n2n1 [Example 77] | < 2 nM | 
10 | CN1Cc2cc(C3=Nc4cc(C(=O)N5CCCCC5)ccc4C4=NCCN34)ccc2C1=O [Example 82] | 5 to 10 nM | 
11 | CN1Cc2cc(C3=Nc4cc(C(=O)N5CCCCC5)ccc4N4CC(C)(C)N=C34)ccc2C1=O [Example 41] | < 2 nM | 
12 | CN1Cc2cc(-c3nc4cc(C(=O)N5CCCCC5)ccc4c4ccnn34)ccc2C1=O [Example 81] | < 2 nM | 
13 | CCOC(=O)c1cn2cc(-c3nc4cc(C(=O)N5CCCCC5)ccc4n4ccnc34)ccc2n1 [Example 30] | 5 to 10 nM | 
14 | Nc1ncc(-c2nc3cc(C(=O)N4CCCCC4)ccc3c3nccn23)cn1 [Example 56] | < 2 nM | 
15 | O=C(c1ccc2c(c1)nc(-c1ccc3nccn3c1)n1ccnc21)N1CCCCC1 [Example 59] | 5 to 10 nM | 
16 | Cn1cc(-c2nc3cc(C(=O)N4CCCCC4)ccc3c3nccn23)cn1 [Example 53] | 2 to 5 nM | 
17 | CC(C)c1nc2c3ccc(C(=O)N4CCCCC4)cc3nc(-c3ccc4c(c3)CN(C)C4=O)n2n1 [Example 78] | 2 to 5 nM | 
18 | CN1Cc2cc(C3=Nc4cc(C(=O)N5CCCCC5)ccc4N4CC(C(C)(C)C)N=C34)ccc2C1=O (centres unmarked) [Example 45] | 5 to 10 nM | 
19 | CN1Cc2cc(-c3nc4cc(C(=O)N5CCCCC5)ccc4c4ncnn34)ccc2C1=O [Example 76] | < 2 nM | 

Row | SMILES | IC50 [1] | IC50
20 | O=C(c1ccc2c(c1)nc(-c1ccccc1)c1nccn12)N1CCC(F)(F)CC1 [Example 16] | 100 to 1000 nM | 
21 | CN1Cc2cc(-c3nc4cc(C(=O)N5CCC(F)CC5)ccc4n4ccnc34)ccc2C1=O [Example 38] | 2 to 5 nM | 
22 | Cn1ccc2cc(-c3nc4cc(C(=O)N5CCCCC5)ccc4c4nccn34)ccc2c1=O [Example 73] | < 2 nM | 
23 | O=C(c1ccc2c(c1)nc(-c1ccc3c(c1)OCCO3)n1ccnc21)N1CCCCC1 [Example 60] | 5 to 10 nM | 
24 | CC1CN2C(=N1)C(c1ccc3c(c1)CN(C)C3=O)=Nc1cc(C(=O)N3CCCCC3)ccc12 (centres unmarked) [Example 36] | < 2 nM | 
25 | O=C(c1ccc2c(c1)nc(-c1ccc3nccnc3c1)n1ccnc21)N1CCCCC1 [Example 67] | 2 to 5 nM | 
26 | Cn1ccc(-c2nc3cc(C(=O)N4CCCCC4)ccc3c3nccn23)cc1=O [Example 61] | 5 to 10 nM | 
27 | CN1Cc2cc(C3=Nc4cc(C(=O)N5CCCCC5)ccc4N4CC5(CC5)N=C34)ccc2C1=O [Example 4, 2-methyl-5-(7′-(piperidine-1-carbonyl)-1′H-spiro[cyclopropane-1,2′-imidazo[1,2-a]quinoxaline]-4′-yl) isoindolin-1-one] |  | < 2 nM
28 | CN(C)c1ncc(-c2nc3cc(C(=O)N4CCCCC4)ccc3c3nccn23)cn1 [Example 52] | 5 to 10 nM | 
29 | Cc1cn2c(n1)c(-c1ccc3c(c1)CN(C)C3=O)nc1cc(C(=O)N3CCCCC3)ccc12 [Example 34] | < 2 nM | 
30 | O=C(c1ccc2c(c1)nc(-c1ccccc1)c1nccn12)N1CCOCC1 [Example 17] | 100 to 1000 nM | 
31 | Cn1ccc2cc(-c3nc4cc(C(=O)N5CCCCC5)ccc4c4nccn34)cnc21 [Example 62] | < 2 nM | 
32 | CN1Cc2cc(-c3nc4cc(C(=O)N5CCCCC5)ccc4c4cccn34)ccc2C1=O [Example 80] | < 2 nM | 
33 | CCOC(=O)c1cc2cc(-c3nc4cc(C(=O)N5CCCCC5)ccc4c4nccn34)ccc2[nH]1 [Example 72] | 5 to 10 nM | 
34 | CC(C)CC1CN2C(=N1)C(c1ccc3c(c1)CN(C)C3=O)=Nc1cc(C(=O)N3CCCCC3)ccc12 (centres unmarked) [Example 44] | 5 to 10 nM | 
35 | CN1Cc2cc(-c3nc4cc(C(=O)N5CCCCC5)ccc4c4nc(C(F)(F)F)nn34)ccc2C1=O [Example 79] | 2 to 5 nM | 
36 | CN1Cc2cc(-c3nc4cc(C(=O)N5CCCCC5)ccc4n4cnnc34)ccc2C1=O [Example 5, 2-methyl-5-(7-(piperidine-1-carbonyl)-[1,2,4]triazolo[4,3-a]quinoxalin-4-yl) isoindolin-1-one] |  | 5 to 10 nM
37 | CN1Cc2cc(C3=Nc4cc(C(=O)N5CCCCC5)ccc4N4CCN=C34)ccc2C1=O [Example 35] | < 2 nM | 
38 | CC(C)C1CN2C(=N1)C(c1ccc3c(c1)CN(C)C3=O)=Nc1cc(C(=O)N3CCCCC3)ccc12 (centres unmarked) [Example 43] | 5 to 10 nM | 

Next, values leading:

Row | IC50 [1] | IC50 | SMILES
39 | 10 to 20 nM |  | Cn1cc(-c2nc3cc(C(=O)N4CCCCC4)ccc3n3ccnc23)ccc1=O [Example 18]
40 | 5 to 10 nM |  | O=C(c1ccc2c(c1)nc(-c1cncnc1)c1nccn12)N1CCCCC1 [Example 8]
41 | < 2 nM |  | O=C(c1ccc2c(c1)nc(-c1ccc3ncsc3c1)n1ccnc21)N1CCCCC1 [Example 54]
42 | 5 to 10 nM |  | O=C(c1ccc2c(c1)nc(-c1ccc3ncsc3c1)c1nccn12)N1CCCCC1 [Example 10]
43 | < 2 nM |  | CN1Cc2cc(-c3nc4cc(C(=O)N5CCCCC5)ccc4n4ccnc34)ccc2C1=O [Example 6]
44 | < 2 nM |  | O=C(O)c1ccc(-c2nc3cc(C(=O)N4CCCCC4)ccc3n3ccnc23)cc1 [Example 33]
45 | 2 to 5 nM |  | Cn1ncc2cc(-c3nc4cc(C(=O)N5CCCCC5)ccc4n4ccnc34)ccc21 [Example 24]
46 | 5 to 10 nM |  | O=C1OCc2cc(-c3nc4cc(C(=O)N5CCCCC5)ccc4n4ccnc34)ccc21 [Example 31]
47 | < 2 nM |  | Cn1ccc2cc(-c3nc4cc(C(=O)N5CCCCC5)ccc4n4ccnc34)ccc2c1=O [Example 20]
48 | 5 to 10 nM |  | CCOC(=O)c1ccc(-c2nc3cc(C(=O)N4CCCCC4)ccc3n3ccnc23)cc1 [Example 42]
49 | < 2 nM |  | O=C(c1ccc2c(c1)nc(-c1ccc3[nH]c(=O)[nH]c3c1)c1nccn12)N1CCCCC1 [Example 29]
50 | 2 to 5 nM |  | Nc1ncc(-c2nc3cc(C(=O)N4CCCCC4)ccc3n3ccnc23)cn1 [Example 7]
51 | 2 to 5 nM |  | Cn1ccc2cc(-c3nc4cc(C(=O)N5CCCCC5)ccc4n4ccnc34)cnc21 [Example 23]
52 | 5 to 10 nM |  | O=C(c1ccc2c(c1)nc(-c1ccc3ncnn3c1)c1nccn12)N1CCCCC1 [Example 27]
53 | < 2 nM |  | Cn1cc2cc(-c3nc4cc(C(=O)N5CCCCC5)ccc4n4ccnc34)ccc2n1 [Example 21]
54 |  | 2 to 5 nM | O=C(c1ccc2c(c1)nc(-c1ccc3ocnc3c1)c1nccn12)N1CCCCC1 [Example 2, (4-(benzo[d]oxazol-5-yl)imidazo[1,2-a]quinoxalin-7-yl)(piperidin-1-yl)methanone]
55 | 5 to 10 nM |  | O=C(c1ccc2c(c1)nc(-c1ccc3nccnc3c1)c1nccn12)N1CCCCC1 [Example 19]
56 | 50 to 100 nM |  | CN1Cc2cc(-c3nc4cc(C(=O)N5CCCC5)ccc4n4ccnc34)ccc2C1=O [Example 40]
